In BindingDB's records for doi:10.1016/j.bmcl.2009.04.040 (The University of Texas Southwestern Medical Center At …, 2009):

biological target: Proto-oncogene Wnt-3 (Homo sapiens, UniProt P56703); assay: Inhibition of Wnt3 expressed in mouse L-cells assessed as inhibition of Wnt/catanin signaling pathway by luciferase reporter gene assay
Sequence (P56703 whole entry): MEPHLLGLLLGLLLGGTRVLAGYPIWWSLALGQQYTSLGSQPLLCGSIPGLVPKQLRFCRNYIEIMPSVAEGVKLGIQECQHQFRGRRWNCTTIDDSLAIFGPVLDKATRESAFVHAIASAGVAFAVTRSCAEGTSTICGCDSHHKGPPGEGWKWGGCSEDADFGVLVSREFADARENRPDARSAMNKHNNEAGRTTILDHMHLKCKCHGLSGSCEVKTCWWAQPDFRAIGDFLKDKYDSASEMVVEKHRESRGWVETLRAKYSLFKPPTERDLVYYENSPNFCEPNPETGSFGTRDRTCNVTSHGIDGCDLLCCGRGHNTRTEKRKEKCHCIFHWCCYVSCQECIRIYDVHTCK

EC50 [µM]	SMILES
> 25	Cc1cc(C(=O)Nc2cccc3cccnc23)ccc1-n1c(O)c2c(c1O)[C@H]1C=C[C@@H]2C1 [4-((1R,2S,6R,7S)-3,5-Dioxo-4-aza-tricyclo[5.2.1.0*2,6*]dec-8-en-4-yl)-3-methyl-N-quinolin-8-yl-benzamide]
20	O=C(Nc1cccc(C(F)(F)F)c1)c1ccc(-n2c(O)c3c(c2O)[C@H]2C=C[C@@H]3C2)cc1 [4-((1R,2S,6R,7S)-3,5-Dioxo-4-aza-tricyclo[5.2.1.0*2,6*]dec-8-en-4-yl)--(3-trifluoromethyl-phenyl)-benzamide]
> 25	O=C(Nc1ccccc1F)c1ccc(-n2c(O)c3c(c2O)[C@H]2C=C[C@@H]3C2)cc1 [4-((1R,2S,6R,7S)-3,5-Dioxo-4-aza-tricyclo[5.2.1.0*2,6*]dec-8-en-4-yl)-N-(2-fluoro-phenyl)-benzamide]
1	COc1ccccc1NC(=O)c1ccc(-n2c(O)c3c(c2O)[C@H]2C=C[C@@H]3C2)cc1 [4-((1R,2S,6R,7S)-3,5-Dioxo-4-aza-tricyclo[5.2.1.0*2,6*]dec-8-en-4-yl)-N-(2-methoxy-phenyl)-benzamide]
> 25	O=C(Nc1ccccc1C(F)(F)F)c1ccc(-n2c(O)c3c(c2O)[C@H]2C=C[C@@H]3C2)cc1 [4-((1R,2S,6R,7S)-3,5-Dioxo-4-aza-tricyclo[5.2.1.0*2,6*]dec-8-en-4-yl)-N-(2-trifluoromethyl-phenyl)-benzamide]
> 25	O=C(Nc1cccc(F)c1)c1ccc(-n2c(O)c3c(c2O)[C@H]2C=C[C@@H]3C2)cc1 [4-((1R,2S,6R,7S)-3,5-Dioxo-4-aza-tricyclo[5.2.1.0*2,6*]dec-8-en-4-yl)-N-(3-fluoro-phenyl)-benzamide]
4	O=C(Nc1ccc(F)cc1)c1ccc(-n2c(O)c3c(c2O)[C@H]2C=C[C@@H]3C2)cc1 [4-((1R,2S,6R,7S)-3,5-Dioxo-4-aza-tricyclo[5.2.1.0*2,6*]dec-8-en-4-yl)-N-(4-fluoro-phenyl)-benzamide]

Further lines, the molecule ahead of its results:

SMILES	EC50 [µM]
O=C(Nc1ccc(-n2c(O)c3c(c2O)[C@H]2C=C[C@@H]3C2)cc1)Nc1cccc2cccnc12 [1-[4-((1R,2S,6R,7S)-3,5-Dioxo-4-aza-tricyclo[5.2.1.0*2,6*]dec-8-en-4-yl)-phenyl]-3-quinolin-8-yl-urea]	> 25
O=C(Nc1cccc2cccnc12)c1ccc(-n2c(O)c3c(c2O)[C@H]2C=C[C@@H]3C2)cc1Cl [2-Chloro-4-((1R,2S,6R,7S)-3,5-dioxo-4-aza-tricyclo[5.2.1.0*2,6*]dec-8-en-4-yl)-N-quinolin-8-yl-benzamide]	1
O=C(Nc1cccc2cccnc12)c1ccc(-n2c(O)c3c(c2O)[C@H]2C=C[C@@H]3C2)c(Cl)c1 [3-Chloro-4-((1R,2S,6R,7S)-3,5-dioxo-4-aza-tricyclo[5.2.1.0*2,6*]dec-8-en-4-yl)-N-quinolin-8-yl-benzamide]	> 25
O=C(Nc1ccccc1)c1ccc(-n2c(O)c3c(c2O)[C@H]2C=C[C@H]3C2)cc1 [4-((1R,2S,6R,7R)-3,5-Dioxo-4-aza-tricyclo[5.2.1.0*2,6*]dec-8-en-4-yl)-N-phenyl-benzamide]	> 25
COc1cc(-n2c(O)c3c(c2O)[C@H]2C=C[C@@H]3C2)ccc1C(=O)Nc1cccc2cccnc12 [4-((1R,2S,6R,7S)-3,5-Dioxo-4-aza-tricyclo[5.2.1.0*2,6*]dec-8-en-4-yl)-2-methoxy-N-quinolin-8-yl-benzamide]	> 25
Cc1cc(-n2c(O)c3c(c2O)[C@H]2C=C[C@@H]3C2)ccc1C(=O)Nc1cccc2cccnc12 [4-((1R,2S,6R,7S)-3,5-Dioxo-4-aza-tricyclo[5.2.1.0*2,6*]dec-8-en-4-yl)-2-methyl-N-quinolin-8-yl-benzamide]	2
COc1cc(C(=O)Nc2cccc3cccnc23)ccc1-n1c(O)c2c(c1O)[C@H]1C=C[C@@H]2C1 [4-((1R,2S,6R,7S)-3,5-Dioxo-4-aza-tricyclo[5.2.1.0*2,6*]dec-8-en-4-yl)-3-methoxy-N-quinolin-8-yl-benzamide]	> 25
